# Reference: ChEMBL document CHEMBL5321271, “Identification of Novel Quinolin-2(1H)-ones as Phosphodiesterase 1 Inhibitors for the Treatment of Inflammatory Bowel Disease” (J Med Chem, 2023)
# Activity calls are given as the source filed them. The rule behind the calls is not given here.
# Assays:
# [1] = molecular target: Dual specificity calcium/calmodulin-dependent 3',5'-cyclic nucleotide phosphodiesterase 1C (Homo sapiens, UniProt Q14123); test: Inhibition of PDE1C (147 to 531 residues) (unknown origin) using 3H-cGMP as substrate incubated for 15 mins by liquid scintillation counter analysis
# Sequence of Dual specificity calcium/calmodulin-dependent 3',5'-cyclic nucleotide phosphodiesterase 1C (Q14123 whole entry, the tested form may be a part): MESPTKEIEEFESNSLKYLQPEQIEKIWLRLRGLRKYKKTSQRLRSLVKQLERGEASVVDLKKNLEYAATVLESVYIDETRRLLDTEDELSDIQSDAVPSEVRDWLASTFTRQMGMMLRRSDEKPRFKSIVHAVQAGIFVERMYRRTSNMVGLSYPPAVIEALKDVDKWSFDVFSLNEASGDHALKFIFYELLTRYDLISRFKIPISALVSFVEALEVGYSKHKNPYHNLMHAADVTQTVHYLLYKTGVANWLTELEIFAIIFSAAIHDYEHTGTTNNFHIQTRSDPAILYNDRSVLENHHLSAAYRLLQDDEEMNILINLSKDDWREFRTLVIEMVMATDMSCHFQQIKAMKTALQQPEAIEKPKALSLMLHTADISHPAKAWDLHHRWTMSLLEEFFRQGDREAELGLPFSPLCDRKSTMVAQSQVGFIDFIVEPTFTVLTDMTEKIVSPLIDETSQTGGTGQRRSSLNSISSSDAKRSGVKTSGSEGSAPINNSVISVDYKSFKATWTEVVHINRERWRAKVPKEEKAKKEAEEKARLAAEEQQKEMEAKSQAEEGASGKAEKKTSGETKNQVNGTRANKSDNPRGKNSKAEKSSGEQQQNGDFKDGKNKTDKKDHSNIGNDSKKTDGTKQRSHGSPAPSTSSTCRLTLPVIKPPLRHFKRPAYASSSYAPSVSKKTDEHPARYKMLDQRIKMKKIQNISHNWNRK
# [2] = molecular target: High affinity cGMP-specific 3',5'-cyclic phosphodiesterase 9A (Homo sapiens, UniProt O76083); test: Inhibition of PDE9A (181 to 506 residues) (unknown origin) using 3H-cGMP as substrate incubated for 15 mins by liquid scintillation counter analysis
# Sequence of High affinity cGMP-specific 3',5'-cyclic phosphodiesterase 9A (O76083 whole entry, the tested form may be a part): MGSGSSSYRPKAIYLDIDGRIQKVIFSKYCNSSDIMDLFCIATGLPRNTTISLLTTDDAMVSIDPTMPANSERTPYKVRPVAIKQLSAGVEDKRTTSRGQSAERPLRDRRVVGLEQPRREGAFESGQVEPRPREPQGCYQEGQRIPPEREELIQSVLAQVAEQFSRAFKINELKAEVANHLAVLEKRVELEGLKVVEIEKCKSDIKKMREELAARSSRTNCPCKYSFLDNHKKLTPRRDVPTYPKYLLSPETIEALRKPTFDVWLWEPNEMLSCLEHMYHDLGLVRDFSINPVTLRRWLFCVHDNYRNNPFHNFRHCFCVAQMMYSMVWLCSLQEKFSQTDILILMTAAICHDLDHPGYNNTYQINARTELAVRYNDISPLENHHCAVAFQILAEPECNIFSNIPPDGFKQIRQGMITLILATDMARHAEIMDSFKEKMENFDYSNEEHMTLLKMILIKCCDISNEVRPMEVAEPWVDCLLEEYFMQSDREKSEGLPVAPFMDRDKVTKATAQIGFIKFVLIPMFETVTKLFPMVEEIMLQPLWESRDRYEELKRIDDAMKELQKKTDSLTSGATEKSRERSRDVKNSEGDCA
# Mus musculus [3] = test: Anti-inflammatory bowel disease activity in DSS-induced inflammatory bowel disease C57BL/6 mouse model assessed as decrease in fecal occult blood by measuring disease activity index score at 25 mg/kg,ip BID for 7 days by Hemo-occult test; assay type: functional, organism-based; settings: time 7.0 day
# Mus musculus [4] = test: Anti-inflammatory bowel disease activity in DSS-induced inflammatory bowel disease C57BL/6 mouse model assessed as decrease in body weight loss by measuring disease activity index score at 25 mg/kg,ip BID for 7 days; assay type: functional, organism-based; settings: time 7.0 day
# Mus musculus [5] = test: Anti-inflammatory bowel disease activity in DSS-induced inflammatory bowel disease C57BL/6 mouse model assessed as decrease in diarrhoea by measuring disease activity index score at 25 mg/kg,ip BID for 7 days; assay type: functional, organism-based; settings: time 7.0 day
# [6] = Toxicity in DSS-induced inflammatory bowel disease C57BL/6 mouse model assessed as body weight change at 25 mg/kg,ip BID for 7 days; assay type: organism-based; settings: in vivo, 168 h, time 7 day
# Mus musculus [7] = test: Anti-inflammatory bowel disease activity in DSS-induced inflammatory bowel disease C57BL/6 mouse model assessed as increase in colon length at 25 mg/kg,ip BID for 7 days by vernier calipers analysis; assay type: functional, organism-based; settings: time 7.0 day
# Mus musculus [8] = test: Anti-inflammatory bowel disease activity in DSS-induced inflammatory bowel disease C57BL/6 mouse model assessed as decrease in fecal occult blood by measuring disease activity index score at 5 mg/kg,ip BID for 7 days; assay type: functional, organism-based; settings: time 7.0 day
# [9] = molecular target: cGMP-dependent 3',5'-cyclic phosphodiesterase (Homo sapiens, UniProt O00408); test: Inhibition of PDE2A (580 to 919 residues) (unknown origin) using 3H-cGMP as substrate incubated for 15 mins by liquid scintillation counter analysis
# [10] = molecular target: cGMP-inhibited 3',5'-cyclic phosphodiesterase 3A (Homo sapiens, UniProt Q14432); test: Inhibition of PDE3A (679 to 1087 residues) (unknown origin) using 3H-cAMP as substrate incubated for 15 mins by liquid scintillation counter analysis
# [11] = molecular target: 3',5'-cyclic-AMP phosphodiesterase 4D (Homo sapiens, UniProt Q08499); test: Inhibition of PDE4D (86 to 413 residues) (unknown origin) using 3H-cAMP as substrate incubated for 15 mins by liquid scintillation counter analysis
# Sequence of 3',5'-cyclic-AMP phosphodiesterase 4D (Q08499 whole entry, the tested form may be a part): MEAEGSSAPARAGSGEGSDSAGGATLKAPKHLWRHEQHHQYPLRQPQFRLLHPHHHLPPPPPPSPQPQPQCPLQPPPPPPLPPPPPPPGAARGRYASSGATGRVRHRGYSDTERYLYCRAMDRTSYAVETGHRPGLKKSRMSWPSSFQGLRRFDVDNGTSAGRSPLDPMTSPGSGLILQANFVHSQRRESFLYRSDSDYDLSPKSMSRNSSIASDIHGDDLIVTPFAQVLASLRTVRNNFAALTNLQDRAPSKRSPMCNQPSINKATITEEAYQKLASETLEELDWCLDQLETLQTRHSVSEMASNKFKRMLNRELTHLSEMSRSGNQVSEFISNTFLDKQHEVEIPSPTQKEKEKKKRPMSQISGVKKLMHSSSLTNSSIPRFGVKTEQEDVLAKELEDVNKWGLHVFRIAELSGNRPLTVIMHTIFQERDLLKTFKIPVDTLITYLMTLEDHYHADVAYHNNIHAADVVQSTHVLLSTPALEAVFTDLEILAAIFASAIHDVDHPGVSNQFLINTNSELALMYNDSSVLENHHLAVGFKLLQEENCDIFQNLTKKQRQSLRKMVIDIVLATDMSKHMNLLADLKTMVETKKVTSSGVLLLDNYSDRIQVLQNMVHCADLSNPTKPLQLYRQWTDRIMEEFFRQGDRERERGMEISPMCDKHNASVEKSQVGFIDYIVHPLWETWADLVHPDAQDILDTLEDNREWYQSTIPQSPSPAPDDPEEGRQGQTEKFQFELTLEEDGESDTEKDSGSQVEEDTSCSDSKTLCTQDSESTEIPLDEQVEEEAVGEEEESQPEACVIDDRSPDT
# [12] = molecular target: cGMP-specific 3',5'-cyclic phosphodiesterase (Homo sapiens, UniProt O76074); test: Inhibition of PDE5A1 (535 to 860 residues) (unknown origin) using 3H-cGMP as substrate incubated for 15 mins by liquid scintillation counter analysis
# [13] = molecular target: High affinity 3',5'-cyclic-AMP phosphodiesterase 7A (Homo sapiens, UniProt Q13946); test: Inhibition of PDE7A (130 to 482 residues) (unknown origin) using 3H-cAMP as substrate incubated for 15 mins by liquid scintillation counter analysis
# Sequence of High affinity 3',5'-cyclic-AMP phosphodiesterase 7A (Q13946 whole entry, the tested form may be a part): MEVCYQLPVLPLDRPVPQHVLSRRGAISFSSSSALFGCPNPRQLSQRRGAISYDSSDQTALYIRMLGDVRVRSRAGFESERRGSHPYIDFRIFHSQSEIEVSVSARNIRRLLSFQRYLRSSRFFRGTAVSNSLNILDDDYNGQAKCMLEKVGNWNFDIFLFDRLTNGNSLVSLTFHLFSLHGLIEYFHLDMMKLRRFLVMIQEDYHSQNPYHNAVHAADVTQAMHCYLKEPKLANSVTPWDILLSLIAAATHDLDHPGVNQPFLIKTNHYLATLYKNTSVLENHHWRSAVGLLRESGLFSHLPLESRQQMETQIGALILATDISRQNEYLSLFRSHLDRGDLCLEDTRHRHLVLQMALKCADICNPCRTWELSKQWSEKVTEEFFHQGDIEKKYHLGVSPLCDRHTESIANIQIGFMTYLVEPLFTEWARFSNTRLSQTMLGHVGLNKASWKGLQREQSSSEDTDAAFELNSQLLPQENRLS
# [14] = molecular target: High affinity cAMP-specific and IBMX-insensitive 3',5'-cyclic phosphodiesterase 8A (Homo sapiens, UniProt O60658); test: Inhibition of PDE8A (480 to 820 residues) (unknown origin) using 3H-cAMP as substrate incubated for 15 mins by liquid scintillation counter analysis
# Sequence of High affinity cAMP-specific and IBMX-insensitive 3',5'-cyclic phosphodiesterase 8A (O60658 whole entry, the tested form may be a part): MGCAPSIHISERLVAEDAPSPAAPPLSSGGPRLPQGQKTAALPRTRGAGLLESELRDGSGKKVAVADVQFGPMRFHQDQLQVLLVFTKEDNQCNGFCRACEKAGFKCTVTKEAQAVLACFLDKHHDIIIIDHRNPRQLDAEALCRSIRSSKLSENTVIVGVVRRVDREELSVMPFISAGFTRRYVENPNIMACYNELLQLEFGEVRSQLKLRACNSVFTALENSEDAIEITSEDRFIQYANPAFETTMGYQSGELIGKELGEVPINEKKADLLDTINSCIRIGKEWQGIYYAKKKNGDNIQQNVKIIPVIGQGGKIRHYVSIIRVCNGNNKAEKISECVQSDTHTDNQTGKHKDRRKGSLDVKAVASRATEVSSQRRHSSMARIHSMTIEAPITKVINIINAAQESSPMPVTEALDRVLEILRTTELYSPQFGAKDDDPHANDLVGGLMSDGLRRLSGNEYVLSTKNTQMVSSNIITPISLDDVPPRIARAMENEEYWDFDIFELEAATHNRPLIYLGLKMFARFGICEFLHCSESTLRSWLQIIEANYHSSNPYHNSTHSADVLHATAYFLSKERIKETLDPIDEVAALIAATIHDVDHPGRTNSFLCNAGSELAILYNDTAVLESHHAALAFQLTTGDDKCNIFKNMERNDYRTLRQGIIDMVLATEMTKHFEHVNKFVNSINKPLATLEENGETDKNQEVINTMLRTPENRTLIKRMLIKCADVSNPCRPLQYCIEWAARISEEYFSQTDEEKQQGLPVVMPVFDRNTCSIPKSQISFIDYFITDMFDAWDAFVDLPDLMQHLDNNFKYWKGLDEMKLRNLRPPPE
# [15] = molecular target: cAMP and cAMP-inhibited cGMP 3',5'-cyclic phosphodiesterase 10A (Homo sapiens, UniProt Q9Y233); test: Inhibition of PDE10A (449 to 770 residues) (unknown origin) using 3H-cAMP as substrate incubated for 15 mins by liquid scintillation counter analysis
# Sequence of cAMP and cAMP-inhibited cGMP 3',5'-cyclic phosphodiesterase 10A (Q9Y233 whole entry, the tested form may be a part): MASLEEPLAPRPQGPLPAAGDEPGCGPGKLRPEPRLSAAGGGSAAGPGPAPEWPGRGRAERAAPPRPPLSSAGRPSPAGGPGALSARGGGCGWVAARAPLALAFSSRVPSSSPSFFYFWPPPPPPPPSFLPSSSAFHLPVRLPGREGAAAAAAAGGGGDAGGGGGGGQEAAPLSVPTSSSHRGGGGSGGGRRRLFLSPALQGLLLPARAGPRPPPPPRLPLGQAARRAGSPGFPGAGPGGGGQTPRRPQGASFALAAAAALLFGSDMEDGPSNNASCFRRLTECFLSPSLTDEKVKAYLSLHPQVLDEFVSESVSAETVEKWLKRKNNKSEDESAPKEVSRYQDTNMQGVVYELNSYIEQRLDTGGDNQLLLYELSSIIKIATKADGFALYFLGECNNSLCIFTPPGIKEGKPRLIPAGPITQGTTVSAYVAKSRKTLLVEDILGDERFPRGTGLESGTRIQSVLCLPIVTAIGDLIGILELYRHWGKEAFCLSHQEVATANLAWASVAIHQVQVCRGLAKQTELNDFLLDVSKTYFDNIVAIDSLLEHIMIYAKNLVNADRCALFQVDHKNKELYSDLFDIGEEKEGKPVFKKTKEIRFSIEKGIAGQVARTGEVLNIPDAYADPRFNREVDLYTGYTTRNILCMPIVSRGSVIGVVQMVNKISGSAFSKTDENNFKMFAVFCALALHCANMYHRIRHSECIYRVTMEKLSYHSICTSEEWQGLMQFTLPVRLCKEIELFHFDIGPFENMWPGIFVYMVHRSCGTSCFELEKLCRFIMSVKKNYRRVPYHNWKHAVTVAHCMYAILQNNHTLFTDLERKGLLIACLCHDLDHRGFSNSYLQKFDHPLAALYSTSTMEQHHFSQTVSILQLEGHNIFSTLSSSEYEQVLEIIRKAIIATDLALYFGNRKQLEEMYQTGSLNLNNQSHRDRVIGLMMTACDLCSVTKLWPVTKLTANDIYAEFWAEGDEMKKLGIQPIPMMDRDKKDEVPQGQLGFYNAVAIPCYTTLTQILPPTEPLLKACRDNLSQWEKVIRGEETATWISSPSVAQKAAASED
# [16] = Metabolic stability in rat liver microsomes assessed as half life
# Mus musculus [17] = test: Anti-inflammatory bowel disease activity in DSS-induced inflammatory bowel disease C57BL/6 mouse model assessed as decrease in body weight loss by measuring disease activity index score at 5 mg/kg,ip BID for 7 days; assay type: functional, organism-based; settings: time 7.0 day
# Mus musculus [18] = test: Anti-inflammatory bowel disease activity in DSS-induced inflammatory bowel disease C57BL/6 mouse model assessed as decrease in diarrhoea by measuring disease activity index score at 5 mg/kg,ip BID for 7 days; assay type: functional, organism-based; settings: time 7.0 day
# Mus musculus [19] = test: Anti-inflammatory bowel disease activity in DSS-induced inflammatory bowel disease C57BL/6 mouse model assessed as increase in colon length at 5 mg/kg,ip BID for 7 days by vernier calipers analysis; assay type: functional, organism-based; settings: time 7.0 day
# Mus musculus [20] = test: Anti-inflammatory bowel disease activity in DSS-induced inflammatory bowel disease C57BL/6 mouse model assessed as protection of colon crypt structures at 5 mg/kg,ip BID for 7 days by Hematoxylin and eosin staining based microscopy; assay type: functional, organism-based; settings: time 7.0 day
# Mus musculus [21] = test: Anti-inflammatory bowel disease activity in DSS-induced inflammatory bowel disease C57BL/6 mouse model assessed as reduction in histological inflammation in colon at 5 mg/kg,ip BID for 7 days by Hematoxylin and eosin staining based microscopy; assay type: functional, organism-based; settings: time 7.0 day
# RAW264.7 [22] = test: Anti-inflammatory activity in mouse RAW264.7 cells assessed as reduction in LPS-induced iNOS mRNA expression at 5 to 10 uM incubated for 24 hrs by qPCR analysis; assay type: functional, cell-based; settings: dose 5-10 µM
# RAW264.7 [23] = test: Anti-inflammatory activity in mouse RAW264.7 cells assessed as reduction in LPS-induced NO release at 5 to 10 uM incubated for 24 hrs by Griess method; assay type: functional, cell-based; settings: dose 5-10 µM
# RAW264.7 [24] = test: Anti-inflammatory activity in mouse RAW264.7 cells assessed as reduction in LPS-induced TNF-alpha mRNA expression at 5 to 10 uM incubated for 24 hrs by qPCR analysis; assay type: functional, cell-based; settings: dose 5-10 µM
# RAW264.7 [25] = test: Anti-inflammatory activity in mouse RAW264.7 cells assessed as reduction in LPS-induced IL-1alpha mRNA expression at 5 to 10 uM incubated for 24 hrs by qPCR analysis; assay type: functional, cell-based; settings: dose 5-10 µM
# RAW264.7 [26] = test: Anti-inflammatory activity in mouse RAW264.7 cells assessed as reduction in LPS-induced IL-1beta mRNA expression at 5 to 10 uM incubated for 24 hrs by qPCR analysis; assay type: functional, cell-based; settings: dose 5-10 µM
# RAW264.7 [27] = test: Anti-inflammatory activity in mouse RAW264.7 cells assessed as reduction in LPS-induced IL-6 mRNA expression at 5 to 10 uM incubated for 24 hrs by qPCR analysis; assay type: functional, cell-based; settings: dose 5-10 µM
compound,measurement,setting,value
CC(Nc1ccc2c(C3CCCC3)c(C#N)c(=O)n(Cc3ccccc3)c2c1)c1ccccn1 (configuration not stated),IC50,[1],20 nM
Cc1ccc(-c2c(C#N)c(=O)n(Cc3ccccc3)c3ccccc23)cc1,IC50,[1],48 nM
same,IC50,[2],5830 nM
Cc1ccc(-c2c(C#N)c(=O)n(Cc3ccncc3)c3cc(NC(C)c4ccccn4)ccc23)cc1 (configuration not stated),IC50,[1],> 1000 nM
CC(Nc1ccc2c(C(C)(C)C)c(C#N)c(=O)n(Cc3ccccc3)c2c1)c1ccccn1 (configuration not stated),IC50,[1],83 nM
N#Cc1c(C2CCCC2)c2ccc(NCC3CCOCC3)cc2n(CC2CCCC2)c1=O,IC50,[1],> 1000 nM
OCCN(CCO)c1nc(N2CCCCC2)c2nc(N(CCO)CCO)nc(N3CCCCC3)c2n1 [DIPYRIDAMOLE],Activity,Mus musculus [3],Active
same,Activity,Mus musculus [4],Active
same,Activity,Mus musculus [5],Active
same,Activity,[6],Toxic
same,Activity,Mus musculus [7],Active
C[C@@H](Nc1ccc2c(C3CCCC3)c(C#N)c(=O)n(CC3CCCC3)c2c1)c1ccccn1,IC50,[1],38 nM
Cc1ccc(-c2c(C#N)c(=O)n(Cc3ccccc3)c3cc(NC(C)c4ccccc4)ccc23)cc1 (configuration not stated),IC50,[1],55 nM
CC(C)c1c(C#N)c(=O)n(Cc2ccccc2)c2cc(NC(C)c3ccccn3)ccc12 (configuration not stated),IC50,[1],22 nM
N#Cc1c(C2CCCC2)c2ccc(NCc3ccc(F)cn3)cc2n(CC2CCCC2)c1=O,Activity,Mus musculus [8],Active
same,IC50,[1],15 nM
same,IC50,[2],> 10000 nM
same,IC50,[9],> 10000 nM
same,IC50,[10],> 10000 nM
same,IC50,[11],610 nM
same,IC50,[12],2180 nM
same,IC50,[13],2300 nM
same,IC50,[14],> 10000 nM
same,IC50,[15],3030 nM
same,half-life,[16],1.6 min
same,Activity,Mus musculus [17],Active
same,Activity,Mus musculus [18],Active
same,Activity,Mus musculus [19],Active
same,Activity,Mus musculus [20],Active
same,Activity,Mus musculus [21],Active
same,Activity,RAW264.7 [22],Dose-Dependent Effect
same,Activity,RAW264.7 [23],Dose-Dependent Effect
same,Activity,RAW264.7 [24],Dose-Dependent Effect
same,Activity,RAW264.7 [25],Dose-Dependent Effect
same,Activity,RAW264.7 [26],Dose-Dependent Effect
same,Activity,RAW264.7 [27],Dose-Dependent Effect
C[C@H](Nc1ccc2c(C3CCCC3)c(C#N)c(=O)n(CC3CCCC3)c2c1)c1ccccn1,IC50,[1],16 nM
CCCCNc1ccc2c(-c3ccc(C)cc3)c(C#N)c(=O)n(Cc3ccccc3)c2c1,IC50,[1],> 1000 nM
CC(Nc1ccc2c(C3CCCC3)c(C#N)c(=O)n(CC3CCCC3)c2c1)c1ccccn1 (configuration not stated),IC50,[1],19 nM
Cc1ccc(-c2c(C#N)c(=O)n(Cc3ccccc3)c3cc(NC(C)c4ccccn4)ccc23)cc1 (configuration not stated),IC50,[1],15 nM
CCCCCn1c(=O)c(C#N)c(-c2ccc(C)cc2)c2ccc(NC(C)c3ccccn3)cc21 (configuration not stated),IC50,[1],> 1000 nM
Cc1ccc(-c2c(C#N)c(=O)n(Cc3ccccc3)c3ccc(NC(C)c4ccccn4)cc23)cc1 (configuration not stated),IC50,[1],24 nM
Cc1ccc(-c2c(C#N)c(=O)[nH]c3ccccc23)cc1,IC50,[1],450 nM
same,IC50,[2],8.9 nM
Cc1ccc(-c2c(C#N)c(=O)n(CC3CCCC3)c3cc(NC(C)c4ccccn4)ccc23)cc1 (configuration not stated),IC50,[1],25 nM
Cc1ccc(-c2c(C#N)c(=O)n(Cc3ccccc3)c3c(NC(C)c4ccccn4)cccc23)cc1 (configuration not stated),IC50,[1],> 1000 nM
CC(Nc1ccc2c(C3CC3)c(C#N)c(=O)n(Cc3ccccc3)c2c1)c1ccccn1 (configuration not stated),IC50,[1],218 nM
